Results reported in article PMC7206119, “RIP1 inhibition blocks inflammatory diseases but not tumor growth or metastases” (Cell Death and Differentiation, 2019).

Assays:
Test in all cases: biochemical
Parameters in all cases: DiscoverX kinase panel, active-site competition binding (KINOMEscan type), percent of control at one concentration
Details in all cases: competition binding, percent of control
CAMK2D = CAMK2D (Homo sapiens, UniProt Q13557)
Source text: (§1) To investigate the potential therapeutic benefit of inhibiting RIP1, we developed GNE684 or (S)-N-((S)-7-methoxy-1-methyl-2-oxo-2,3,4,5-tetrahydro-1H-pyrido[3,4-b]azepin-3-yl)-5-phenyl-6,7-dihydro-5H-pyrrolo[1,2-b][1,2,4]triazole-2-carboxamide with cross-species potency against RIP1, exquisite kinase selectivity, and favorable pharmacological properties (Fig. 1a–h, S1, Tables S1 and S2, SI file 1). […] (Fig. 1b, S1, and Table S1). […] GNE684 inhibited human RIP1 potently in vitro, and mouse and rat RIP1 with slightly less potency (Fig. 1d). Accordingly, it inhibited TNF-induced necroptosis in human HT-29, mouse L929, or rat H9c2 cells (Fig. 1e). The cellular potency of GNE684 was confirmed in a human whole blood assay using TBZ (TNF, IAP antagonist BV6, and pan-caspase inhibitor zVAD) or LZ (LPS plus zVAD) to trigger necroptosis and the release of IL-1α and IL-1β (Fig. 1f).

CAMK2G = CAMK2G (Homo sapiens, UniProt Q13555)
Sequence of CAMK2G (Q13555 whole entry): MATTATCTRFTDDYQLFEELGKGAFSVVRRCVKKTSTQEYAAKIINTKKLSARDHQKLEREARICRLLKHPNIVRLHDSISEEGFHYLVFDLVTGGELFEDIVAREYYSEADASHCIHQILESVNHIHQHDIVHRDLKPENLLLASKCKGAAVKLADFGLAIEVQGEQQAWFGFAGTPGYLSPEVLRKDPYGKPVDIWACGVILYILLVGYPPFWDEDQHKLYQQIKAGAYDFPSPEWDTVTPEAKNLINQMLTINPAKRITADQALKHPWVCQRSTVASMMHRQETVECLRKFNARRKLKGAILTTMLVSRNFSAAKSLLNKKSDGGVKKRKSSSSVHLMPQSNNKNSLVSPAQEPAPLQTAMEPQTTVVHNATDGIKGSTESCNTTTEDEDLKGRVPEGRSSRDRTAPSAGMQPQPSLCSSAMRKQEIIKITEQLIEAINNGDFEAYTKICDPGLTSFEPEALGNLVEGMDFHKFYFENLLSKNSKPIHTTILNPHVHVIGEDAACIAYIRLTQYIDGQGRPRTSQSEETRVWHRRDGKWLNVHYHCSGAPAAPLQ
Source text: as §1

CLK2 = CLK2 (Homo sapiens, UniProt P49760)
Sequence of CLK2 (P49760 whole entry): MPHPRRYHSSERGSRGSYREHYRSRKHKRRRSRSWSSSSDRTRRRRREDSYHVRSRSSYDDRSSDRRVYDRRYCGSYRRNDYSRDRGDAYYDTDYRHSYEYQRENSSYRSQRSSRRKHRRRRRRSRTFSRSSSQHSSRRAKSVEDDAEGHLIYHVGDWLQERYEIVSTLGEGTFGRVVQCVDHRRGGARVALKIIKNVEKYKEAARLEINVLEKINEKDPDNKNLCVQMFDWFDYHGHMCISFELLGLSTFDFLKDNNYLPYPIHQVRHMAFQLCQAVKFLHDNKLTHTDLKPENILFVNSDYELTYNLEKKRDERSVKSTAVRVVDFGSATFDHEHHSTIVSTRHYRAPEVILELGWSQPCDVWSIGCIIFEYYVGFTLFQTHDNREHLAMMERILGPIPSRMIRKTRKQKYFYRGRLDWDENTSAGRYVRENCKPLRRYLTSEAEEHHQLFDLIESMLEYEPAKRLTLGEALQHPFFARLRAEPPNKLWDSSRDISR
Source text: as §1

CLK3 = CLK3 (Homo sapiens, UniProt P49761)
Sequence of CLK3 (P49761 whole entry): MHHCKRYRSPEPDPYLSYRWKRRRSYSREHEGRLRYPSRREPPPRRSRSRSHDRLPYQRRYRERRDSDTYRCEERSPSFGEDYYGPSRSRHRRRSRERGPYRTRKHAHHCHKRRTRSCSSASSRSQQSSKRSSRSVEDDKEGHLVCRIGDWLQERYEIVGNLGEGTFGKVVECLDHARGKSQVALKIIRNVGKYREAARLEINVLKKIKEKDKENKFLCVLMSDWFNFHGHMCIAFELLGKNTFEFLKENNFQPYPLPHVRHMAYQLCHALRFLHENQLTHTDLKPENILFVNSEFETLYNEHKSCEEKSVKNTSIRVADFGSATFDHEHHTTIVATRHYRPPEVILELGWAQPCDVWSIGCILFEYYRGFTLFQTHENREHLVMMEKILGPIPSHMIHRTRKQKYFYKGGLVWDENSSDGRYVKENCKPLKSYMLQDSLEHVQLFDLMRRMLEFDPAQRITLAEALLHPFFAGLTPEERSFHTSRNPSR
Source text: as §1

DAPK1 = DAPK1 (Homo sapiens, UniProt P53355)
Source text: as §1

DLK = target: T1, DLK (Homo sapiens, UniProt Q12852)
T1 construct: gene MAP3K12
T1 sequence (Q12852 whole entry): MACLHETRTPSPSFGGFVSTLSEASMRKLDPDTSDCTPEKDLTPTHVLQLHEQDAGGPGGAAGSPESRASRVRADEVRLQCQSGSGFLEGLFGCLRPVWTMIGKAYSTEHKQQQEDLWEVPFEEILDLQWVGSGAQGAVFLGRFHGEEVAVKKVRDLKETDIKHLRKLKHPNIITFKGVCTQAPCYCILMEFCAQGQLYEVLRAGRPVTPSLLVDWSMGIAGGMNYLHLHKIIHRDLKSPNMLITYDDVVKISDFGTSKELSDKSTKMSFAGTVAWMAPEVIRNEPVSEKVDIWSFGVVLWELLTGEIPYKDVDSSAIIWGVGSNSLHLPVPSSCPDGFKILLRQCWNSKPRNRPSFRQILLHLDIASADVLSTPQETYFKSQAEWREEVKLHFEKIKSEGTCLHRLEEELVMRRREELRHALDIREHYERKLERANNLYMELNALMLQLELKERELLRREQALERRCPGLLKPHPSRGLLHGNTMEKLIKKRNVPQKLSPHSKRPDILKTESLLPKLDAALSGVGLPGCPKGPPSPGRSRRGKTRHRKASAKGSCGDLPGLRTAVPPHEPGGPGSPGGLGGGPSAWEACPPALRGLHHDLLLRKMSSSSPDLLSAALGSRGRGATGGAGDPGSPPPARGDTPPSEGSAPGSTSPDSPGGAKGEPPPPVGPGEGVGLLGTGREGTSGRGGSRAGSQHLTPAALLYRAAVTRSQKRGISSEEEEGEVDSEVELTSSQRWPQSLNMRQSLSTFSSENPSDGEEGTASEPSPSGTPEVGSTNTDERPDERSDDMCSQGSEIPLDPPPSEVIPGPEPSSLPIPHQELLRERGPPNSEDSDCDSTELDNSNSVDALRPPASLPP
Source text: as §1

EGFR(G719C) = EGFR(G719C) (Homo sapiens, UniProt P00533, G719C)
Source text: as §1

EGFR(G719S) = EGFR(G719S) (Homo sapiens, UniProt P00533, G719S)
Source text: as §1

ERBB2 = ERBB2 (Homo sapiens, UniProt P04626)
Sequence of ERBB2 (P04626 whole entry): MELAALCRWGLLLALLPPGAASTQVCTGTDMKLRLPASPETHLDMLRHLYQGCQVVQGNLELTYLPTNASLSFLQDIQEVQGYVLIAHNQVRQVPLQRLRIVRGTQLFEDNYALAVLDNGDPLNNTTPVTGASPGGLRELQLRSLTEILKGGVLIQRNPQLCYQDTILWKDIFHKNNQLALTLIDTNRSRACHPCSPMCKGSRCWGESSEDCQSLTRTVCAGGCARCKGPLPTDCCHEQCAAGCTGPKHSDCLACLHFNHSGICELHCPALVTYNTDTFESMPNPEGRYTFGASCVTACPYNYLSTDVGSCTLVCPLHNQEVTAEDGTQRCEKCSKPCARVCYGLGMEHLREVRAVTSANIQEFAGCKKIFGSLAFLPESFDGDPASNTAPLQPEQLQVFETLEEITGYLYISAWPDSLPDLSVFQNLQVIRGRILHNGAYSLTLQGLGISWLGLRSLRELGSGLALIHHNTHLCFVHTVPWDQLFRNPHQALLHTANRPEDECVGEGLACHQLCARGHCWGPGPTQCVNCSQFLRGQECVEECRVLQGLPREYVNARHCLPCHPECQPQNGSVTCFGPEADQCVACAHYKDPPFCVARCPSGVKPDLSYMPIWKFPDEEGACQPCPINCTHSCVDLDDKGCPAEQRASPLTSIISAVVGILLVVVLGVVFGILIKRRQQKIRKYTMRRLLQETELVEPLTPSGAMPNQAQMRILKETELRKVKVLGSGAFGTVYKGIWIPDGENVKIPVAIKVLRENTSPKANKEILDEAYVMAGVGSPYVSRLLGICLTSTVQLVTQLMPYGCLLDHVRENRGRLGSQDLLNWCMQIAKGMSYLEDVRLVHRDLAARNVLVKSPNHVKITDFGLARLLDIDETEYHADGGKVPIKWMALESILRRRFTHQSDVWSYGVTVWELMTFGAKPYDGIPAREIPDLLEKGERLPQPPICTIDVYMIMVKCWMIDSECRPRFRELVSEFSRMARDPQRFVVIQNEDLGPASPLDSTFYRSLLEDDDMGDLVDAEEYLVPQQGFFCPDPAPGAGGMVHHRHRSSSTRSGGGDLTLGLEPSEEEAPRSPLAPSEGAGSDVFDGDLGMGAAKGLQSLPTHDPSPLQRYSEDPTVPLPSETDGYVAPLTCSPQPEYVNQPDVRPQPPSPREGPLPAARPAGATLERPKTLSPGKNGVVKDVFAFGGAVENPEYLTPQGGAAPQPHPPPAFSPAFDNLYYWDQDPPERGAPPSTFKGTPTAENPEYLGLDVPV
Source text: as §1

IRAK1 = IRAK1 (Homo sapiens, UniProt P51617)
Source text: as §1

LCK = LCK (Homo sapiens, UniProt P06239)
Source text: as §1

MRCKB = target: T2, MRCKB (Homo sapiens, UniProt Q9Y5S2)
T2 construct: gene CDC42BPB
Source text: as §1

PDGFRB = PDGFRB (Homo sapiens, UniProt P09619)
Source text: as §1

PIM3 = PIM3 (Homo sapiens, UniProt Q86V86)
Source text: as §1

PIP5K2B = target: T3, PIP5K2B (Homo sapiens, UniProt P78356)
T3 construct: gene PIP4K2B
T3 sequence (P78356 whole entry): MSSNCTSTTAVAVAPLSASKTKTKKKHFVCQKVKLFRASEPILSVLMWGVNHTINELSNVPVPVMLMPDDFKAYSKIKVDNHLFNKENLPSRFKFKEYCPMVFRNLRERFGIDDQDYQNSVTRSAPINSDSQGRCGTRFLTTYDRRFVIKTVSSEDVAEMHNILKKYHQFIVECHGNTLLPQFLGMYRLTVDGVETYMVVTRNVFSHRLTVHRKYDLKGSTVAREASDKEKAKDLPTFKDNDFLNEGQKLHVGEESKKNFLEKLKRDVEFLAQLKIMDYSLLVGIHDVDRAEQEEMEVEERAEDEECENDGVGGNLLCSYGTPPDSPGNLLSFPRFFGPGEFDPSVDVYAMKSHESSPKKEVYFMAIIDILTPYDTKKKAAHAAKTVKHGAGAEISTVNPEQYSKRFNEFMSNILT
Source text: as §1

PKN2 = PKN2 (Homo sapiens, UniProt Q16513)
Source text: as §1

PRKD3 = PRKD3 (Homo sapiens, UniProt O94806)
Source text: as §1

RIOK2 = RIOK2 (Homo sapiens, UniProt Q9BVS4)
Source text: as §1

RIOK3 = RIOK3 (Homo sapiens, UniProt O14730)
Source text: as §1

SRPK2 = SRPK2 (Homo sapiens, UniProt P78362)
Source text: as §1

TNNI3K = TNNI3K (Homo sapiens, UniProt Q59H18)
Sequence of TNNI3K (Q59H18 whole entry): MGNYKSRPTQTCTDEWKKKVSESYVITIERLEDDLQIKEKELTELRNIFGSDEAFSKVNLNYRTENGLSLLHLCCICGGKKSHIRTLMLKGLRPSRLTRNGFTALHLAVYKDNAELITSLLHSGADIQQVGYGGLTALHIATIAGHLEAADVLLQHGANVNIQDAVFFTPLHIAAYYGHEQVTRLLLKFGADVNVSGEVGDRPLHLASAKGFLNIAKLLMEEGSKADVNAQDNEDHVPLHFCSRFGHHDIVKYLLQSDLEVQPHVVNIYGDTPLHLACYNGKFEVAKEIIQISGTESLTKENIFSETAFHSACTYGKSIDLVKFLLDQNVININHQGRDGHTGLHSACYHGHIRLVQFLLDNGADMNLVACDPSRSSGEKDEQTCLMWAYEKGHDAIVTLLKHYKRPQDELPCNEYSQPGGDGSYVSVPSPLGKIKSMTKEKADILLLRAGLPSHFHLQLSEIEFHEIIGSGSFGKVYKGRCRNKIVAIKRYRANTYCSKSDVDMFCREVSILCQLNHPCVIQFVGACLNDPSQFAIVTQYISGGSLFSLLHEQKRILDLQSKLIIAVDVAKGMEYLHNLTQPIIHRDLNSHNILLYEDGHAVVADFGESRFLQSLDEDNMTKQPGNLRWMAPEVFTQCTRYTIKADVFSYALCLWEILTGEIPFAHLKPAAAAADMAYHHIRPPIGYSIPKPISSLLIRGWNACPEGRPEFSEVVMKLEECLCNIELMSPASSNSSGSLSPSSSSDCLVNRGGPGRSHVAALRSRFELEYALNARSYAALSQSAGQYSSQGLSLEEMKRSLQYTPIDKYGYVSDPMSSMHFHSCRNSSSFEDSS
Source text: as §1

p38-alpha = target: T4, p38-alpha (Homo sapiens, UniProt Q16539)
T4 construct: gene MAPK14
Source text: as §1

**Q.** How did the remaining binding at 10 µM (CAMK2D) turn out when `COc1cc2c(cn1)N(C)C(=O)[C@@H](NC(=O)c1nc3n(n1)[C@H](c1ccccc1)CC3)CC2` [GNE684, (S)-N-((S)-7-methoxy-1-methyl-2-oxo-2,3,4,5-tetrahydro-1H-pyrido[3,4-b]azepin-3-yl)-5-phenyl-6,7-dihydro-5H-pyrrolo[1,2-b][1,2,4]triazole-2-carboxamide] was run?
**A.** Its remaining binding at 10 µM is 100%.

**Q.** What about the remaining binding at 10 µM (CAMK2G) of the same compound?
**A.** Its remaining binding at 10 µM is 100%.

**Q.** And the remaining binding at 10 µM (CLK2)?
**A.** Its remaining binding at 10 µM is 74%.

**Q.** And the remaining binding at 10 µM (CLK3)?
**A.** The remaining binding at 10 µM was 97%.

**Q.** What about the remaining binding at 10 µM (DAPK1) of the same compound?
**A.** The remaining binding at 10 µM was 88%.

**Q.** What about the remaining binding at 10 µM (DLK) of the same compound?
**A.** Its remaining binding at 10 µM is 100%.

**Q.** What about the remaining binding at 10 µM (EGFR(G719C)) of the same compound?
**A.** The remaining binding at 10 µM was 87%.

**Q.** What about the remaining binding at 10 µM (EGFR(G719S)) of the same compound?
**A.** Its remaining binding at 10 µM is 100%.

**Q.** What about the remaining binding at 10 µM (ERBB2) of the same compound?
**A.** The remaining binding at 10 µM was 76%.

**Q.** And the remaining binding at 10 µM (IRAK1)?
**A.** The remaining binding at 10 µM was 96%.

**Q.** And the remaining binding at 10 µM (LCK)?
**A.** The remaining binding at 10 µM was 86%.

**Q.** And the remaining binding at 10 µM (MRCKB)?
**A.** The remaining binding at 10 µM was 100%.

**Q.** And the remaining binding at 10 µM (PDGFRB)?
**A.** The remaining binding at 10 µM was 94%.

**Q.** And the remaining binding at 10 µM (PIM3)?
**A.** Its remaining binding at 10 µM is 100%.

**Q.** What about the remaining binding at 10 µM (PIP5K2B) of the same compound?
**A.** Its remaining binding at 10 µM is 92%.

**Q.** And the remaining binding at 10 µM (PKN2)?
**A.** Its remaining binding at 10 µM is 84%.

**Q.** What about the remaining binding at 10 µM (PRKD3) of the same compound?
**A.** Its remaining binding at 10 µM is 100%.

**Q.** What about the remaining binding at 10 µM (RIOK2) of the same compound?
**A.** The remaining binding at 10 µM was 28%.

**Q.** What about the remaining binding at 10 µM (RIOK3) of the same compound?
**A.** The remaining binding at 10 µM was 100%.

**Q.** And the remaining binding at 10 µM (SRPK2)?
**A.** Its remaining binding at 10 µM is 100%.

**Q.** And the remaining binding at 10 µM (TNNI3K)?
**A.** Its remaining binding at 10 µM is 100%.

**Q.** And the remaining binding at 10 µM (p38-alpha)?
**A.** The remaining binding at 10 µM was 95%.
